Among the data in patent US20240207421A1, “NERVE TARGETING PEPTIDES AND METHODS OF USE” (ALUME BIOSCIENCES, INC., priority 2020, published 2024) are Count values, retold here.

For one assay, the system named is Human MPZ. In words: Phage display library screening (Example 2, Python script analysis), binding to Human MPZ. To be noted: combined unique sequence count, Python/R script analysis. Here is the method: (§1) Phage display library screens were used to identify peptides that bind to target proteins (including specific laminin trimers) that are expressed in human nerves, as described in Table 3. These screens were also carried out to identify peptides that could bind selectively to nerves versus muscle. Such peptides could therefore be useful for systemic in-vivo labeling of nerves during fluorescence assisted surgery. Specifically, m 13 phage libraries expressing 7 or 12 random amino acid peptides, or a cyclic peptide CX7C, on the N-terminus of the minor coat protein pIII (New England Biolabs; NEB) were processed through multiple rounds of selection for binding to target proteins expressed in nerves, or to excised human nerves, nerve extracts, or muscle, as described further below.
Human MPZ, sequence (P25189 30-153 limits assumed): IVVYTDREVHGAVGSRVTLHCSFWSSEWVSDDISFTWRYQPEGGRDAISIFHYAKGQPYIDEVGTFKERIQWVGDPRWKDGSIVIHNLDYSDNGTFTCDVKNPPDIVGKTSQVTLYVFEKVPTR
(§2) For screening against the specified target proteins in Table 1, including LN211, LN411, LN421, and LN521, the phage library was processed by up to 4 binding and wash cycles. For selection, phage libraries were incubated for up to 24 hours at 4° C. in 96 well plates that had been coated with one of the target proteins. Plates were then washed with PBS and phage were eluted using 0.2M glycine pH 2.0. Phage supernatants where then neutralized with Tris pH 9.0 prior to plating on TGI bacteria and LB agar plates. Colonies were counted to determine titer followed by DNA preparation of pools of phage and NextGen sequencing. After rounds of selection, phage were pooled and amplified for iterative selection. Phage that were bound at each round were sequenced. NextGen sequencing of pools after 2, 3 and 4 rounds of selection was used to isolate candidate sequences that were analyzed further to identify those that specifically bound each unique target protein.
(§3) Python Script Analysis: For all NEB sequence datasets, a python script was used to translate, trim, and filter the peptide sequences. The script translated the nucleotide sequences, translating amber codons as glutamine in peptide sequences, and then trimmed the end sequences that come from the vector. Secondly, the script combined the unique counts of trimmed peptides with identical sequences. […] Another python script was used to group peptides from different assays according to protein target (Myelin Protein Zero, Myelin Proteolipid Protein, Myelin Basic Protein, and Nidogen-2) and also combine the unique sequence counts for each peptide. An R script was written to merge the peptide sequences from different data files and determine peptides specific for each protein target but absent from different protein binding datasets. Peptide sequences were ranked by unique sequence count.
As to “EGHVWSEYTWGT (Human MPZ-binding peptide)”, the Count was determined as 37.
Same read-out and setting: the value for “NGAYSLAIRYTS (Human MPZ-binding peptide)” was 53; that for QIAHLEY (Human MPZ-binding peptide) was 50; that for GGSKVWG (Human MPZ-binding peptide) was 40.
The same measure, in the same setting: the value for WTSVATA (Human MPZ-binding peptide) was 41.
Same read-out and setting: the value for CIKGEDNQC (Human MPZ-binding peptide) was 38; that for TTWPNTA (Human MPZ-binding peptide) was 45.
Turning to VPLAYLR (Human MPZ-binding peptide), the Count is listed as 40.
Still for that read-out and setting: the value for FSPRDVS (Human MPZ-binding peptide) was 39.
Still for that read-out and setting: the value for MYHDSVS (Human MPZ-binding peptide) was 47; that for HHPLFID (Human MPZ-binding peptide) was 39; that for SPNTNSH (Human MPZ-binding peptide) was 40.
As to SAHSVVE (Human MPZ-binding peptide), the Count is 38.
In the case of YGQSITE (Human MPZ-binding peptide), the Count came out at 37.
On the same count and under the same terms, under LSPPRIM (Human MPZ-binding peptide) stands 43; under YSSLTSN (Human MPZ-binding peptide), 38.
For the substance CGEKIMSLC (Human MPZ-binding peptide), the Count amounted to 40.
As to FRVTQTA (Human MPZ-binding peptide), the Count was 41.
The same measure, in the same setting: the value for TTLVVTA (Human MPZ-binding peptide) was 42; that for GPVVSGM (Human MPZ-binding peptide) was 46.
Still for that read-out and setting: under VVPLKWI (Human MPZ-binding peptide) stands 40.
The same measure, in the same setting: under LVLSNPR (Human MPZ-binding peptide) stands 46; under CDIKDANSC (Human MPZ-binding peptide), 38.
Consider NPTSEGA (Human MPZ-binding peptide), for which the Count was found to be 37.
Same read-out and setting: the value for NMSHSNR (Human MPZ-binding peptide) was 46; that for YMKHSPG (Human MPZ-binding peptide) was 45.
In the case of SETESYM (Human MPZ-binding peptide), the Count was 41.
Still for that read-out and setting: under LISPTAR (Human MPZ-binding peptide) stands 37; under HLDSRRH (Human MPZ-binding peptide), 46.
On to “ADNVLRRALENI (Human MPZ-binding peptide)”, for which the Count is listed as 49.
Turning to SNALSYF (Human MPZ-binding peptide), the Count came out at 41.
As to TLLHYSA (Human MPZ-binding peptide), the Count is listed as 40.
VHTPYRS (Human MPZ-binding peptide): the Count is 41.
NPISPRN (Human MPZ-binding peptide): the Count is listed as 38.
Take CSNALNKAC (Human MPZ-binding peptide): the Count was 39.
Same read-out and setting: under LPNANNL (Human MPZ-binding peptide) stands 41; under KTPILAS (Human MPZ-binding peptide), 38; under NASVPPK (Human MPZ-binding peptide), 42.
As to HNQLLYT (Human MPZ-binding peptide), the Count turned out to be 38.
As for WPRPIQI (Human MPZ-binding peptide), the Count amounted to 41.
On to SYLPPFI (Human MPZ-binding peptide), for which the Count amounted to 41.
Same read-out and setting: the value for HPLMVPS (Human MPZ-binding peptide) was 41.
Same read-out and setting: the value for SGHGAFR (Human MPZ-binding peptide) was 42; that for KLPTLSV (Human MPZ-binding peptide) was 44.
Same read-out and setting: under HPFPRFD (Human MPZ-binding peptide) stands 45.
Consider LWAKRDA (Human MPZ-binding peptide), for which the Count is given as 38.
On to “TTNVTEIERESY (Human MPZ-binding peptide)”, for which the Count was determined as 37.
Consider ALPISYL (Human MPZ-binding peptide), for which the Count came to 42.
On the same count and under the same terms, under FEHMAVT (Human MPZ-binding peptide) stands 42; under THSTDLS (Human MPZ-binding peptide), 37.
Same read-out and setting: under LPAESHW (Human MPZ-binding peptide) stands 45; under “GEWRARIDQDVS (Human MPZ-binding peptide)”, 65.
The same measure, in the same setting: the value for IEQVGWR (Human MPZ-binding peptide) was 38; that for KQPAMEN was 37; that for FPSYTIS (Human MPZ-binding peptide) was 40.
For CLKQQTGDC (Human MPZ-binding peptide), the Count is 37.
Regarding YPQARTS (Human MPZ-binding peptide), the Count was determined as 46.
Turning to YAPWRVF (Human MPZ-binding peptide), the Count is 37.

The test system of the next assay is Laminin 421/521. In words: Phage display library screening (Example 2), NEB laminin-binding peptides. More on the design: species or system human. To be noted: Laminin 421/521, not 211 and 411; combined unique sequence count, Python/R script analysis. In a few lines:
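M13 phage libraries (7- or 12-mer random or cyclic CX7C peptides on pIII) panned up to 4 rounds against plate-coated laminins LN211, LN411, LN421, LN521, 24 h at 4 °C; elution with 0.2M glycine pH 2.0. NextGen sequencing of pools after rounds 2–4; peptides binding 421/521 but not 211/411 identified.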
Consider “EGHVWSEYTWGT (Human MPZ-binding peptide)”, for which the Count came to 50.

The test system of the next assay is Human Myelin PLP. In words: Phage display library screening (Example 2, Python script analysis), binding to Human Myelin PLP. To be noted: combined unique sequence count, Python/R script analysis. Here is the method: as §1, §2, §3
Take LPHRLNP (Myelin PLP-binding peptide): the Count is recorded as 27.
Regarding WHYTPSM (Myelin PLP-binding peptide), the Count was found to be 26.
On the same count and under the same terms, under LNGISAL (Myelin PLP-binding peptide) stands 32.
With AHQSSVT (Myelin PLP-binding peptide), the Count was determined as 42.
Same read-out and setting: the value for GNVFQTS (Myelin PLP-binding peptide) was 31; that for VSSQEQA (Myelin PLP-binding peptide) was 34.
For LMQKPSI (Myelin PLP-binding peptide), the Count amounted to 29.
For WNTADRL (Myelin PLP-binding peptide), the Count was 34.
VPGHISG (Myelin PLP-binding peptide): the Count worked out at 27.
VGYRSAS (Myelin PLP-binding peptide): the Count was 28.
Consider LPVKNLL (Myelin PLP-binding peptide), for which the Count amounted to 26.
As to SAQSRSF (Myelin PLP-binding peptide), the Count was 26.
NVFSATP (Myelin PLP-binding peptide): the Count was found to be 31.
Still for that read-out and setting: under SLNRGGA (Myelin PLP-binding peptide) stands 28; under RLQPEPT (Myelin PLP-binding peptide), 33; under DRHEGHR (Myelin PLP-binding peptide), 26.
Still for that read-out and setting: the value for SVVYQNS (Myelin PLP-binding peptide) was 26; that for TKITPHR (Myelin PLP-binding peptide) was 29; that for YSDTYKH (Myelin PLP-binding peptide) was 30.
As to VSASWMP (Myelin PLP-binding peptide), the Count is listed as 27.
The same measure, in the same setting: the value for FSTPTNV (Myelin PLP-binding peptide) was 29; that for GLWGPSL (Myelin PLP-binding peptide) was 26; that for IDRVRGL (Myelin PLP-binding peptide) was 29.
Same read-out and setting: under QRRSVIL (Myelin PLP-binding peptide) stands 31; under VFPERRV (Myelin PLP-binding peptide), 28.
On the same count and under the same terms, the value for TFPERLR (Myelin PLP-binding peptide) was 31; that for AQASSAR (Myelin PLP-binding peptide) was 27; that for SWDVLEL (Myelin PLP-binding peptide) was 31.
As to MPHAPVQ (Myelin PLP-binding peptide), the Count is given as 37.
Regarding SVEKYSK (Myelin PLP-binding peptide), the Count was 33.
On the same count and under the same terms, the value for VTPNKAR (Myelin PLP-binding peptide) was 26.
